Legend:
[1] = test system: normal human dermal fibroblasts (NHDF) cells; experiment: Fibroblast cytotoxicity (CellTiter-Glo); assay type: cell-based; settings: at concentrations as high as 80 μM; dose-response 0.5 to 80 μM
Summary of the method: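 Normal human dermal fibroblasts, 1 × 10^3 per well, exposed to compounds at 10 μM for 72 h at 37°C. Viability read as ATP-dependent CellTiter-Glo luminescence. Dose-response runs titrated compounds from 80 μM to 0.5 μM in duplicate.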

Cryptococcus spores [2] = experiment: Quantitative germination assay (QGA), automated microscopy of spore germination; assay type: cell-based, Cryptococcus neoformans serotype D (deneoformans); settings: for germination inhibition phenotype (chemical phenotype) in QGA: at phenotypic concentration
Experimental: In this automated microscopy-based assay, germination progression of spores is monitored as a function of changes in cell morphology over time (spores are small and oval; yeast are large and circular). Individual spores in a population (∼1 × 10^4 per sample) are measured to determine size (area) and shape (aspect ratio) from the onset of germination, and the data are collected for each cell over the time of germination (Fig. 1A).
Germination assays were modified from those described by Barkal et al. to introduce automation, increase throughput, and refine assay consistency ([12]). Briefly, 384-well plates (Thermo Scientific 142762) were loaded with 10^5 spores per well, and at 0 h, synthetic medium plus 2% dextrose (SD medium) containing the compounds of interest was added to the sample (final volume of 40 μl). All compounds were tested initially at 80 μM; however, concentrations were changed on a case-by-case basis for subsequent experiments. All assays and controls were performed with a final concentration of 0.8% DMSO (the compound solvent) unless specified otherwise. Spores were germinated at 30°C in a humidified chamber, and the same ∼5 × 10^3 cells were monitored every 2 h for 16 h. Imaging was performed on a Ti2 Nikon microscope, and each condition was visualized in a minimum of two individual wells with three fields of view acquired from each well. All images were analyzed as described previously based on cell shape and size using ImageJ. The population ratios of spores, intermediates, and yeast were determined. Error bars in plots are based on the variation among all fields of view acquired. Level of germination was determined by quantifying the decrease in the proportion of spores in a population, and rates were quantified by determining the change in this proportion over time. For all two-dimensional histograms, the x axis represents area from 0 μm^2 to 25 μm^2, and the y axis represents the aspect ratio from 0.4 to 1.
Cycloheximide (0.078 μM to 80 μM) (Dot Scientific, Inc. DSC81040-1), G418 (1.6 mM) (Fisher Scientific AAJ6267106), and puromycin (20 mM) (Dot Scientific, Inc. DSP33020-0.025) were tested with no DMSO (all were water soluble), whereas anisomycin (62.5 μM) (Sigma-Aldrich A9789-5MG) was tested in 2.5% DMSO.
Furcarbanil (80 μM) (Sigma-Aldrich T313122), rotenone (10 μM) (Fisher Scientific 501687383), and antimycin A (2.5 μM) (Santa Cruz Biotechnology, Inc. sc-202467A) were all tested in 0.8% DMSO, and TTFA (200 μM) (Sigma-Aldrich 88300-5G) was tested in 3% DMSO.

[3] = test system: Cryptococcus yeast (JEC21); experiment: Oxygen consumption rate experiments (Seahorse XFe96); assay type: cell-based, Cryptococcus neoformans serotype D (deneoformans); settings: 10 μM inhibitor injected after 20 mM glucose
Experimental: Oxygen consumption experiments were performed on a Seahorse Biosciences XFe96 extracellular flux analyzer, and the assays were modified from those described by Lev et al. 2020 ([28]). Briefly, cartridges were hydrated overnight in Agilent Seahorse XF calibrant. JEC21 yeast were grown overnight in YPD, washed with double-distilled water (ddH2O) and resuspended to an OD600 of 0.08 in Seahorse XF Dulbecco’s modified Eagle medium (DMEM) at pH 7.4 (Agilent 103575-100). Cells (180 μl) were loaded into each well with the exception of blank wells, which were filled with XF DMEM. Each injection solution was 10× the final volume in XF DMEM. The assay was carried out at 30°C with injections occurring every 60 min. OCR was read every 6 min during each hour interval, with 3 min of mixing and 3 min of measuring. The following final concentrations were achieved after each injection: (a) 20 mM dextrose, (b) 10 μM chosen inhibitor (furcarbanil, B2, or B5) and 1% DMSO, (c) 50 μM rotenone, 50 μM antimycin A, and 1% DMSO, and (d) 100 mM 2-deoxy-D-glucose (2-DG; Sigma-Aldrich D8375-1G). Each condition was tested in triplicates.

Candida albicans = test system: Candida albicans; parameters: method as in PMID 16876761; settings: cited from earlier work
[4] = test system: Cryptococcus spores harboring CNK01510-NL fusion; experiment: Nanoluciferase germination screen (HTS); assay type: cell-based, Cryptococcus neoformans serotype D (deneoformans)
From the text: To identify potential inhibitors of spore germination, a nanoluciferase (NL)-based high-throughput screening (HTS) assay was developed, and compounds from three libraries of structurally diverse, drug-like small molecules (LifeChem 1 to 3) were screened (see Fig. S1 in the supplemental material). For the assay, a previously identified protein (CNK01510) was fused to the nanoluciferase protein (Promega) and introduced into its endogenous locus in the Cryptococcus genome ([14]). Strains harboring the integrated NL protein fusion were crossed under sexual development conditions to produce spores. Spores from the NL strains yielded very little NL enzyme activity; however, yeast from those strains produced a robust NL signal. Most importantly, the amount of NL signal correlated with the germination state. As spores germinated into yeast, the levels of NL signal increased, resulting in a robust signal over baseline at the end of germination (∼14-fold) (Fig. S1). […] Secondary screens were performed on these hits to determine effects on yeast replication, cytotoxicity against mammalian fibroblasts, and direct inhibition of the NL enzyme (see Data Set S1).
Screening of the LifeChem libraries (Life Chemicals) was carried out with the assistance of the University of Wisconsin—Madison (UW-Madison) small-molecule screening facility. All NL screening was performed as described previously ([7]). […]

Cryptococcus spores [5] = test system: Cryptococcus spores; parameters: method as in PMID 31570398; settings: previous study; cited from earlier work

Row | Compound | phenotypic concentration (concentration showing the germination phenotype in QGA) (Cryptococcus spores [2]) [µM] | germination inhibition phenotype (chemical phenotype) in QGA (Cryptococcus spores [2]) | also measured
1 | Cc1nc(NCc2ccccc2)c2ccsc2n1 [A5] |  |  | cytotoxicity against fibroblasts [1]: < 20%; inhibition at 5 µM (Cryptococcus spores [2]; Cryptococcus): > 80%
2 | Cc1cc(C(=O)N(CCc2cccs2)C2CC2)c(C)o1 [B2] |  |  | effect on oxygen consumption rate (OCR) [3]: substantial decrease in OCR that was not recovered from; cytotoxicity against fibroblasts [1]: ≤ 25%; inhibition at 5 µM (Cryptococcus spores [2]; Cryptococcus): > 75%
3 | Cc1cc(C(=O)N2CCC(Oc3ncccc3Cl)CC2)c(C)o1 [B5] |  |  | effect on oxygen consumption rate (OCR) [3]: small decrease in OCR that was not recovered from
4 | ClC1(Cl)CC1Cn1cnc2ccccc21 (stereo not shown) [PubChem CID 2936975] | 40 | slow down | 
5 | CCn1c(CSc2ccccc2)nc2ccccc21 [PubChem CID 2992099] | 80 | slow down | 
6 | COc1cccc2cc(-c3csc(NN=C4CCN(C)CC4)n3)c(=O)oc12 [PubChem CID 4913014] | 20 | asynchrony | 
7 | COc1ccc(/C=C/c2nc3ccccc3[nH]2)cc1 [PubChem CID 5769808] | 20 | slow down | 
8 | C/C=C/c1ccc(OCCn2cnc3ccccc32)c(OC)c1 [PubChem CID 5769972] | 10 | slow down | 
9 | O=C(Nc1nc2c(Br)cccc2s1)C1CC1 [PubChem CID 7202929] | 10 | asynchrony | 
10 | Cc1ccc(-c2nnc(Cn3cnc4ccccc43)o2)cc1 [PubChem CID 16456942] | 5 | slow down | 
11 | O=C(NC1CCCC1)c1csc(Nc2ccccc2)n1 [PubChem CID 30860168] | 10 | asynchrony | 
12 | CN(C)CCN(C(=O)c1c[nH]c2ccccc12)c1nc2ccc(OC(F)(F)F)cc2s1.Cl [PubChem CID 71782913] | 20 | asynchrony | 
13 | O=C(c1cc(-c2ccco2)on1)N1CCC(c2cccs2)CC1 [PubChem CID 71786870] | 40 | asynchrony | 
14 | O=C(CSCc1ccccc1)N1CCC(c2cccs2)CC1 [PubChem CID 71786876] | 80 | asynchrony | 
15 | O=C(CCSc1ccccc1)N1CCC(c2cccs2)CC1 [PubChem CID 71786877] | 80 | asynchrony | 
16 | O=C(CSCc1ccccc1)N1CCC(c2ccsc2)CC1 [PubChem CID 71786985] | 80 | asynchrony | 
17 | O=C(CCc1ccccc1Br)N1CCC(c2cccs2)CC1 [PubChem CID 71807060] | 40 | asynchrony | 
18 | O=C(CCc1ccccc1Br)N1CCC(c2ccsc2)CC1 [PubChem CID 71807075] | 40 | asynchrony | 
19 | O=C(NCc1ccnc(-c2cccs2)c1)c1nc2ccccc2s1 [PubChem CID 91630328] | 40 | asynchrony | 
20 | O=C(CC(=O)C(F)(F)F)c1cccs1 [TTFA, thenoyltrifluoroacetone, reference compound] | 200 | asynchrony | effect on hyphal formation (Candida albicans): prevent hyphal formation
21 | COc1ccc(C[C@H]2NC[C@H](O)[C@H]2OC(C)=O)cc1 [anisomycin, reference compound] |  | slow-down | 
22 | CCCCCC[C@H]1C(=O)O[C@H](C)[C@H](NC(=O)c2cccc(NC=O)c2O)C(=O)O[C@@H](C)[C@@H]1OC(=O)CC(C)C [antimycin A, reference compound] | 2.5 | asynchrony | 
23 | C[C@@H]1C[C@@H]([C@H](O)CC2CC(=O)NC(=O)C2)C(=O)[C@@H](C)C1 [cycloheximide, reference compound] |  | slow-down | NL signal in germination screen [4]: low levels of NL signal; inhibition of germination (changes in size or shape) (Cryptococcus spores [2]; 10 µM): full inhibition of germination; IC50 (Cryptococcus spores [2]; Cryptococcus, 16 h, read-out: 50% inhibitory concentration (IC50) of spore germination): 1700 nM
24 | CCN(CC)C(=S)SSC(=S)N(CC)CC [disulfiram] |  |  | germination inhibition phenotype in QGA (Cryptococcus spores [5]): slow-end
25 | Cc1cc(C(=O)Nc2ccccc2)c(C)o1 [furcarbanil, reference compound] | 80 | asynchrony | effect on oxygen consumption rate (OCR) [3]: initial substantial decrease in OCR followed by recovery
26 | COc1ccc(C[C@H](N)C(=O)N[C@H]2[C@@H](O)[C@H](n3cnc4c(N(C)C)ncnc43)O[C@@H]2CO)cc1 [puromycin, reference compound] |  | slow-down | 
27 | C=C(C)[C@H]1Cc2c(ccc3c2O[C@@H]2COc4cc(OC)c(OC)cc4[C@@H]2C3=O)O1 [rotenone, reference compound] | 10 | asynchrony | 

— paper PMC8406298, “Discovery of Fungus-Specific Targets and Inhibitors Using Chemical Phenotyping of Pathogenic Spore Germination” (mBio, 2021)
